Laboratory results from patent publication US20250101011A1, “PEPTIDYL NITRILE COMPOUND AND USE THEREOF” (SHANGHAI YIDIAN PHARMACEUTICAL TECHNOLOGY DEVELOPMENT CO., …, priority 2022, published 2025).

Biological target: DPP1 (Homo sapiens (Human), UniProt P53634)
Experiment: DPP1 activity inhibition test on U937 cells
Type: cell-based
Conditions: substrate h-Gly-phe-AFC; for inhibition at 0.005 µM: U-937, 5 nM compound; for inhibition at 0.05 µM: U-937, 50 nM compound; for IC50: intracellular enzyme activity
Experimental: After incubation at 37° C. for 1 h, add h-Gly-phe-AFC (10 μL) to each well and start reaction.

DPP1, sequence (P53634 25-463): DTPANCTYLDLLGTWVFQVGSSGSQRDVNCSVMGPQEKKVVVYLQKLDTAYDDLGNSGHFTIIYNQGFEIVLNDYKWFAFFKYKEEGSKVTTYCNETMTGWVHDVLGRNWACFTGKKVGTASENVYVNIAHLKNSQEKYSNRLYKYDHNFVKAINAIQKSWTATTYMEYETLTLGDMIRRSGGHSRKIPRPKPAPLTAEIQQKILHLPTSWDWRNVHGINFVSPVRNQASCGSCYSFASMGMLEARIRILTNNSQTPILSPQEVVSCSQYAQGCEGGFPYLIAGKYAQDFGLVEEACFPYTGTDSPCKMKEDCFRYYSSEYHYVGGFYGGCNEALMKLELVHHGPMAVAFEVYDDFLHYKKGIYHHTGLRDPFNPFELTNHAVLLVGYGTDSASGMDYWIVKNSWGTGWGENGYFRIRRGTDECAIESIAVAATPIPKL

N#C[C@H](Cc1ccc(-c2ccc3c(c2)C2(CS(=O)(=O)C2)OC3=O)cc1F)NC(=O)[C@@H]1CNCCCO1 [Compound D72]
inhibition at 0.005 µM: < 30%
inhibition at 0.05 µM: < 30%

CN1CCC2(CC1)COc1ccc(-c3ccc(C[C@@H](C#N)NC(=O)[C@@H]4CNCCCO4)c(F)c3)cc12 [Compound D108]
inhibition at 0.005 µM: < 30%
inhibition at 0.05 µM: 75 to 100%

N#C[C@H](Cc1ccc(-c2ccc3c(c2)C2(COC2)OC3=O)cc1F)NC(=O)[C@@H]1CNCCCO1 [Compound D119]
IC50: 6.1 nM

N#C[C@H](Cc1ccc(-c2ccc3c(c2)CC2(CC2)C3=O)cc1F)NC(=O)[C@@H]1CNCCCO1 [Compound D116]
inhibition at 0.005 µM: < 30%
inhibition at 0.05 µM: 30 to 75%

CN1CCC1Cn1c(=O)oc2ccc(-c3ccc(C[C@@H](C#N)NC(=O)[C@@H]4CNCCCO4)c(F)c3)cc21 (stereo partly drawn) [Compound D97]
IC50: 109 nM

N#C[C@H](Cc1ccc(-c2ccc3c(c2)N2CC(=O)N=C2O3)cc1F)NC(=O)[C@@H]1CNCCCO1 [Compound D81]
inhibition at 0.005 µM: < 30%
inhibition at 0.05 µM: 30 to 75%

N#C[C@H](Cc1ccc(-c2ccc3c(c2)C2(CCN(C4COC4)C2)OC3=O)cc1F)NC(=O)[C@@H]1CNCCCO1 (stereo partly drawn) [Compound D89]
inhibition at 0.005 µM: < 30%
inhibition at 0.05 µM: < 30%

CN1CCC2(C1)OC(=O)c1ccc(-c3ccc(C[C@@H](C#N)NC(=O)[C@@H]4CNCCCO4)c(F)c3)cc12 (stereo partly drawn) [Compound D88]
inhibition at 0.005 µM: < 30%
inhibition at 0.05 µM: 75 to 100%

N#C[C@H](Cc1ccc(-c2ccc3c(c2)C2(CN(C4COC4)C2)OC3=O)cc1F)NC(=O)[C@@H]1CNCCCO1 [Compound D56]
inhibition at 0.005 µM: < 30%
inhibition at 0.05 µM: 30 to 75%

N#C[C@H](Cc1ccc(-c2ccc3c(n2)CCC3=O)cc1F)NC(=O)[C@@H]1CNCCCO1 [Compound D111]
inhibition at 0.005 µM: < 30%
inhibition at 0.05 µM: 75 to 100%
IC50: 32.9 nM

N#C[C@H](Cc1ccc(-c2ccc3c(c2)OC(F)(F)O3)cc1)NC(=O)[C@@H]1CNCCCO1 [Compound D07]
inhibition at 0.005 µM: < 30%
inhibition at 0.05 µM: 30 to 75%

Cn1c(=O)oc2ccc(-c3ccc(C[C@@H](C#N)NC(=O)[C@@H]4CNCCCO4)cc3)cc21 [AZD7986, Brensocatib, reference compound]
inhibition at 0.005 µM: 30 to 75%
inhibition at 0.05 µM: 75 to 100%

N#C[C@H](Cc1ccc(-c2cc3c(s2)CNC3=O)cc1)NC(=O)[C@@H]1CNCCCO1 [Compound D13]
inhibition at 0.005 µM: < 30%
inhibition at 0.05 µM: < 30%

CN1CC2(C1)OC(=O)c1ccc(-c3ccc(C[C@@H](C#N)NC(=O)[C@@H]4CNCCCO4)c(F)c3)cc12 [Compound D102]
inhibition at 0.005 µM: < 30%
inhibition at 0.05 µM: 75 to 100%
IC50: 13.1 nM

N#C[C@H](Cc1ccc(-c2ccc3oc(=O)n(C4CC(=O)C4)c3c2)cc1F)NC(=O)[C@@H]1CNCCCO1 [Compound D68]
inhibition at 0.005 µM: < 30%
inhibition at 0.05 µM: < 30%

N#C[C@H](Cc1ccc(-c2ccc3c(c2)C=CC32CCN(C3COC3)CC2)cc1F)NC(=O)[C@@H]1CNCCCO1 [Compound D93]
inhibition at 0.005 µM: 30 to 75%
inhibition at 0.05 µM: 75 to 100%
IC50: 15.8 nM

CN1CC(Cn2c(=O)oc3ccc(-c4ccc(C[C@@H](C#N)NC(=O)[C@@H]5CNCCCO5)c(F)c4)cc32)C1 [Compound D96]
IC50: 367 nM

N#C[C@H](Cc1ccc(-c2ccc3oc(=O)n(C4COC4)c3c2)cc1F)NC(=O)[C@@H]1CNCCCO1 [Compound D99]
inhibition at 0.005 µM: < 30%
inhibition at 0.05 µM: 30 to 75%

N#C[C@H](Cc1ccc(-c2ccc3c(c2)C2CC2C3=O)cc1F)NC(=O)[C@@H]1CNCCCO1 (stereo partly drawn) [Compound D122]
IC50: 17 nM

CN1CCC2(CC1)OC(=O)c1ccc(-c3ccc(C[C@@H](C#N)NC(=O)[C@@H]4CNCCCO4)cc3)cc12 [Compound D25]
inhibition at 0.005 µM: 30 to 75%
inhibition at 0.05 µM: 75 to 100%

C[C@H](O)Cn1c(=O)oc2ccc(-c3ccc(C[C@@H](C#N)NC(=O)[C@@H]4CNCCCO4)cc3)cc21 [Compound D32]
inhibition at 0.005 µM: < 30%
inhibition at 0.05 µM: 30 to 75%

CN1CCC(n2c(=O)oc3ccc(-c4ccc(C[C@@H](C#N)NC(=O)[C@@H]5CNCCCO5)c(F)c4)cc32)CC1 [Compound D83]
inhibition at 0.005 µM: < 30%
inhibition at 0.05 µM: < 30%

N#C[C@H](Cc1ccc(-c2ccc3c(c2)CCC3=O)[se]1)NC(=O)[C@@H]1CNCCCO1 [Compound D121]
IC50: 4.7 nM

N#C[C@H](Cc1ccc(-c2ccc3nncn3c2)cc1)NC(=O)[C@@H]1CNCCCO1 [Compound D05]
inhibition at 0.005 µM: < 30%
inhibition at 0.05 µM: < 30%

CN1CCC2(CC1)OCc1ccc(-c3ccc(C[C@@H](C#N)NC(=O)[C@@H]4CNCCCO4)cc3)cc12 [Compound D27]
inhibition at 0.005 µM: < 30%
inhibition at 0.05 µM: 30 to 75%

CN1CCC2(C=Cc3cc(-c4ccc(C[C@@H](C#N)NC(=O)[C@@H]5CNCCCO5)c(F)c4)ccc32)CC1 [Compound D91]
inhibition at 0.005 µM: 30 to 75%
inhibition at 0.05 µM: 75 to 100%
IC50: 18 nM

CN1CC2(C1)OCc1ccc(-c3ccc(C[C@@H](C#N)NC(=O)[C@@H]4CNCCCO4)c(F)c3)cc12 [Compound D103]
inhibition at 0.005 µM: 30 to 75%
inhibition at 0.05 µM: 75 to 100%
IC50: 12.2 nM

CNS(=O)(=O)c1ccc(-c2ccc(C[C@@H](C#N)NC(=O)[C@@H]3CNCCCO3)cc2)cc1 [Compound D23]
inhibition at 0.005 µM: < 30%
inhibition at 0.05 µM: < 30%

CN1CCC2(CC1)OCc1ccc(-c3ccc(C[C@@H](C#N)NC(=O)[C@@H]4CNCCCO4)cc3)nc12 [Compound D31]
inhibition at 0.005 µM: < 30%
inhibition at 0.05 µM: 30 to 75%

CC1(C)OC(=O)c2ccc(-c3ccc(C[C@@H](C#N)NC(=O)[C@@H]4CNCCCO4)cc3)cc21 [Compound D42]
inhibition at 0.005 µM: 30 to 75%
inhibition at 0.05 µM: 75 to 100%
IC50: 15 nM

CN1CCC2(CC1)OC(=O)c1cnc(-c3ccc(C[C@@H](C#N)NC(=O)[C@@H]4CNCCCO4)cc3)cc12 [Compound D38]
inhibition at 0.005 µM: < 30%
inhibition at 0.05 µM: 30 to 75%

N#C[C@H](Cc1ccc(-c2cc3c(cn2)C(=O)CC3)cc1F)NC(=O)[C@@H]1CNCCCO1 [Compound D112]
inhibition at 0.005 µM: < 30%
inhibition at 0.05 µM: 30 to 75%

CN1CCC(n2c(=O)oc3ccc(-c4ccc(C[C@@H](C#N)NC(=O)[C@@H]5CNCCCO5)c(F)c4)cc32)C(F)(F)C1 (stereo partly drawn) [Compound D100]
inhibition at 0.005 µM: < 30%
inhibition at 0.05 µM: 30 to 75%

CN1CCC2(CC1)OC(=O)c1ccc(-c3ccc(C[C@@H](C#N)NC(=O)[C@@H]4CNCCCO4)cc3)nc12 [Compound D29]
inhibition at 0.005 µM: 30 to 75%
inhibition at 0.05 µM: 75 to 100%

CN1CC(n2c(=O)oc3ccc(-c4ccc(C[C@@H](C#N)NC(=O)[C@@H]5CNCCCO5)cc4)cc32)C1 [Compound D24]
inhibition at 0.005 µM: 30 to 75%
inhibition at 0.05 µM: 75 to 100%

N#C[C@H](Cc1ccc(-c2ccc3c(c2)C(=O)CO3)cc1)NC(=O)[C@@H]1CNCCCO1 [Compound D10]
inhibition at 0.005 µM: < 30%
inhibition at 0.05 µM: 30 to 75%

N#C[C@H](Cc1ccc(-c2cnc3c(c2)CCC3=O)cc1F)NC(=O)[C@@H]1CNCCCO1 [Compound D113]
inhibition at 0.005 µM: < 30%
inhibition at 0.05 µM: < 30%

CO[C@@H](C)Cn1c(=O)oc2ccc(-c3ccc(C[C@@H](C#N)NC(=O)[C@@H]4CNCCCO4)cc3)cc21 [Compound D33]
inhibition at 0.005 µM: < 30%
inhibition at 0.05 µM: 30 to 75%

COCC1OC(=O)c2ccc(-c3ccc(C[C@@H](C#N)NC(=O)[C@@H]4CNCCCO4)c(F)c3)cc21 (stereo partly drawn) [Compound D77]
inhibition at 0.005 µM: < 30%
inhibition at 0.05 µM: 75 to 100%

Cn1c(=O)oc2ncc(-c3ccc(C[C@@H](C#N)NC(=O)[C@@H]4CNCCCO4)c(F)c3)nc21 [Compound D66]
inhibition at 0.005 µM: < 30%
inhibition at 0.05 µM: < 30%

CN1CCC2(CC1)OCc1ccc(-c3ccc(C[C@@H](C#N)NC(=O)[C@@H]4CNCCCO4)c(F)c3)cc12 [Compound D105]
inhibition at 0.005 µM: < 30%
inhibition at 0.05 µM: < 30%

Cn1cnc(-n2c(=O)oc3ccc(-c4ccc(C[C@@H](C#N)NC(=O)[C@@H]5CNCCCO5)c(F)c4)cc32)n1 [Compound D64]
inhibition at 0.005 µM: < 30%
inhibition at 0.05 µM: < 30%

Cn1ccc(=O)c2ccc(-c3ccc(C[C@@H](C#N)NC(=O)[C@@H]4CNCCCO4)c(F)c3)cc21 [Compound D114]
IC50: 867 nM

CN1CCC2(C=Cc3ccc(-c4ccc(C[C@@H](C#N)NC(=O)[C@@H]5CNCCCO5)c(F)c4)cc32)CC1 [Compound D90]
inhibition at 0.005 µM: < 30%
inhibition at 0.05 µM: 75 to 100%

CO[C@H](C)Cn1c(=O)oc2ccc(-c3ccc(C[C@@H](C#N)NC(=O)[C@@H]4CNCCCO4)cc3)cc21 [Compound D35]
inhibition at 0.005 µM: < 30%
inhibition at 0.05 µM: 30 to 75%

Cn1c(=O)oc2ccc(-c3ccc(C[C@@H](C#N)NC(=O)[C@@H]4CNCC(C)(C)CO4)cc3)cc21 [Compound D50]
IC50: > 1000 nM

CN1CCC2(C1)OCc1ccc(-c3ccc(C[C@@H](C#N)NC(=O)[C@@H]4CNCCCO4)c(F)c3)cc12 (stereo partly drawn) [Compound D86]
inhibition at 0.005 µM: < 30%
inhibition at 0.05 µM: 75 to 100%

N#C[C@H](Cc1ccc(-c2ccc3c(n2)C2(CCN(C4COC4)CC2)OC3)cc1)NC(=O)[C@@H]1CNCCCO1 [Compound D30]
inhibition at 0.005 µM: < 30%
inhibition at 0.05 µM: 30 to 75%

C[C@H]1CNC[C@@H](C(=O)N[C@H](C#N)Cc2ccc(-c3ccc4oc(=O)n(C)c4c3)cc2F)OC1 [Compound D109]
inhibition at 0.005 µM: 30 to 75%
inhibition at 0.05 µM: 75 to 100%
IC50: 5.3 nM

N#C[C@H](Cc1ccc(-c2ccc3c(c2)C2(COC2)OC3)cc1)NC(=O)[C@@H]1CNCCCO1 [Compound D22]
inhibition at 0.005 µM: 30 to 75%
inhibition at 0.05 µM: 75 to 100%

N#C[C@H](Cc1ccc(-c2ccc3oc(=O)n(C4CC(O)C4)c3c2)cc1F)NC(=O)[C@@H]1CNCCCO1 (stereo partly drawn) [Compound D69]
inhibition at 0.005 µM: < 30%
inhibition at 0.05 µM: < 30%

CN(C)CC1OC(=O)c2ccc(-c3ccc(C[C@@H](C#N)NC(=O)[C@@H]4CNCCCO4)c(F)c3)cc21 (stereo partly drawn) [Compound D76]
inhibition at 0.005 µM: < 30%
inhibition at 0.05 µM: 75 to 100%

CN1CC2(Cc3cc(-c4ccc(C[C@@H](C#N)NC(=O)[C@@H]5CNCCCO5)c(F)c4)ccc3C2=O)C1 [Compound D115]
IC50: 29.4 nM
